Assays:
Format in all cases: cell-based
[1] = test system: rat skin fibroblast cell line (FR, ATCC, CRL-1213); experiment: Fibroblast adhesion on RNT-coated titanium; settings: 4 h, FIG. 7
Description: (§1) Titanium (Ti) (1 cm×1 cm×0.05 cm) (Alfa Aesar Ti foil) and glass coverslips were soaked in acetone for 15 min, sonicated for 15 min in acetone, and rinsed with dH2O. They were then soaked and sonicated in 70% ethanol and rinsed with dH2O. Lastly, they were soaked and sonicated in dH2O for another 15 min and rinsed. The glass was then etched in 1 M NaOH for 1 h and thoroughly rinsed in dH2O. All of the Ti and glass coverslips were oven-dried overnight and autoclaved for sterilization. The day before cell seeding, the cleaned Ti substrates were coated with the various RNTs (0.01 mg/mL) and KRSR peptide (0.01 mg/mL) solutions for 45 min at room temperature. They were then removed from the solutions and air-dried overnight. […]
(§2) Osteoblasts, fibroblasts and endothelial cells were seeded onto the substrates at a density of 3500 cells/cm^2 and were incubated in the cell culture medium (specifically, DMEM supplemented with FBS and P/S for osteoblasts, EMEM supplemented with FBS for fibroblasts and MCDB-131 complete medium for endothelial cells) for 4 h. […] The cell density was then determined by counting cells using Image Pro Analyzer. […]
(§3) Data are presented as the mean value±the standard error of the mean and were analyzed with a student's t-test to make pair-wise comparisons. […]

[2] = test system: Rat aortic endothelial cells (RAEC); experiment: Endothelial cell adhesion on RNT-coated titanium; settings: coated on Ti, 4 h, FIG. 9
Description: as §1, §2, §3

[3] = test system: human fetal osteoblast cell line (ATCC, CRL-11372); experiment: Osteoblast adhesion on RNT-coated titanium; settings: coated on Ti, 4 h, FIG. 5
Description: as §1, §2, §3

## lysine-arginine-serine-argine (KRSR) [KRSR peptide]
[1]
  fibroblast adhesion compared to uncoated Ti: did not enhance fibroblast adhesion
[2]
  endothelial cell adhesion / density: did not enhance endothelial cell adhesion
[3]
  osteoblast adhesion (in words): promoted more osteoblast cell adhesion relative to uncoated Ti

Reference: patent US8795691B2, “Nanotubes and compositions thereof” (Brown University, priority 2010, dated 2014)
